Results published in patent US12616681B2, “Compositions and methods for treating renal injury” (priority 2019, dated 2026).

Columns and labels:
Assay type in all cases: in vivo, C57/BL6 mice
[1] = test system: contrast-induced acute kidney injury (CIAKI) mice; assay: CIAKI mouse model: AMP and adenosine levels in renal tissue; details: CIAKI mice, CM + drug, 48 h after CM
Protocol: 48 h after CM administration, serum and kidney tissues were harvested. The adenosine levels in the serum and kidney tissues were measured using high-performance liquid chromatography.

[2] = test system: contrast-induced acute kidney injury (CIAKI) mice; assay: CIAKI mouse model: renal vasodilation in the outer medulla; details: CM + drug, 48 h after CM
Protocol: 48 h after CM injection, kidney tissues were harvested, fixed in 4% phosphate-buffered formalin, and embedded in paraffin. To quantify vasodilation, the inner arteriole area of the outer medulla was determined using α-SMA-stained sections. They were incubated for 1 h with an α-SMA antibody. 3,30-diamino-benzidine (0.7 g/tablet; Sigma-Aldrich) was added, followed by washing three times with PBS for 1 min each. After counterstaining with Mayer's hematoxylin, the inner areas of α-SMA-positive vessels in the outer medulla (25× magnification) were measured using ImageJ software. The results were expressed as the average area of all of the renal arteries in each outer medulla section.

[3] = test system: contrast-induced acute kidney injury (CIAKI) mice; assay: CIAKI mouse model: necrotic and apoptotic cell death, gross findings; details: 48 h after CM
Protocol: Kidneys were harvested at 48 h after the CM injection, fixed in 4% phosphate-buffered formalin, and embedded in paraffin. To evaluate necrosis, […] paraffin sections were stained with hematoxylin and eosin. Tubular injury was scored semi-quantitatively according to a system by a pathologist who examined at least 20 separate fields (400× magnification) in the outer medulla, which is the zone most sensitive to ischemic injury. The scoring system was as follows: 0, no damage; 1, patchy isolated unicellular necrosis; 2, tubular necrosis <25%; 3, tubular necrosis 25-50%; and 4, tubular necrosis >50%. At least 20 consecutive high-power fields per section were scored by two operators blind to the details of the experiment. To analyze the frequency of apoptosis, […] paraffin sections were subjected to terminal deoxynucleotidyl transferase-mediated dUTP nick-end labeling (TUNEL) assay (Millipore, Temecula, CA, USA) according to the manufacturer's protocol. Four […] paraffin sections were incubated with the TUNEL reaction mixture at 37° C. for 1 h, followed by incubation with a horseradish peroxidase-conjugated detection antibody. The signals were visualized using diaminobenzidine (Sigma-Aldrich). After counterstaining with Mayer's hematoxylin, TUNEL-positive cells were counted in at least five separate fields (640× magnification) in the outer medulla, and the apoptosis index (%, number of apoptosis cells/total number of cells) was calculated using GENASIS software.

[4] = test system: mice with ischemic AKI (bilateral renal IRI); assay: Renal IRI model: PGE2 (EP1-EP4) and adenosine A2A receptor expression
Protocol: PGE2 receptors (EP1, EP2, EP3, and EP4) and adenosineA2A receptor mRNA levels were deter-mined by real-time PCR. Their protein levels were determined by Western blot assay and immunofluorescence analysis.

[5] = test system: mice with ischemic AKI (bilateral renal IRI); assay: Renal IRI model: renal vasodilation and renal Doppler flux (RBF)
Protocol: The inner arteriolar area of the outer medulla was determined using α-smooth muscle actin (α-SMA)-stained sections. Kidneys were removed without perfusion under inhalational isoflurane anesthesia, divided into three pieces horizontally, immediately fixed in 10% formalin, and then embedded in paraffin. The inner area of α-SMA-positive vessels in the outer medulla was measured using ImageJ. The results are expressed as average areas of renal arteries in the outer medulla. As a surrogate for RBF, we used noninvasive laser Doppler flowmetry (periflux system 5000, Perimed) to measure flux, placing laser-Doppler probes at a fixed position on the kidney surface and recording renal cortical measurements. […] The relative increase represents the percent increase in RDF from baseline to peak for each test.

[6] = test system: contrast-induced acute kidney injury (CIAKI) mice; assay: CIAKI mouse model: PGE2 receptor (EP) expression in kidney tissue; details: CM + drug
[7] = test system: mice with ischemic AKI (bilateral renal IRI); assay: Renal IRI model: proinflammatory cytokines and HMGB1; details: 24 h after renal IRI, vs IRI-vehicle mice
Protocol: Inflammatory cytokine mRNA and protein levels were measured by real-time PCR and ELISA. Kidney tissue and serum were harvested after reperfusion for 24 h. Total RNA was extracted from frozen kidney tissue using TRIzol reagent (ThermoFisher Scientific) according to the manufacturer's protocol. RNA was converted to cDNA using oligo-dT primers. IL-17, TNF-α, and IL-1b mRNA levels were determined by real-time PCR. Serum IL-17 (R&D Systems), TNF-α (R&D Systems), and IL-10 (R&D Systems) were measured using commercial ELISA kits according to the manufacturer's instructions.

[8] = test system: mice with ischemic AKI (bilateral renal IRI); assay: Renal IRI model: necrotic and apoptotic cell death, gross pathology; details: 24 h after renal IRI; 5 mg/kg ip three times
Excerpt: To evaluate necrosis, 5-μm-thick paraffin sections were stained with hematoxylin and eosin. Tubular injury of individual slides was scored semi-quantitatively according to a scoring system by a pathologist in a blinded manner. The scoring system was as follows: 0, no damage; 1, patchy isolated unicellular necrosis; 2, tubular necrosis <25%; 3, tubular necrosis 25-50%; and 4, tubular necrosis >50%. To analyze the frequency of apo ptosis, 5-μm-thick paraffin sections were subjected to a TUNEL assay (Millipore, Temecula, CA) according to the manufacturer's protocol. TUNEL-positive cells were counted in at least five separate fields (64 magnification) in the outer medulla, and the apoptosis index (in %, number of apoptosis cells/total number of cells) was calculated using GENASIS software.

[9] = pretreatment, mRNA in kidney tissue

adenosine A2A receptor ([4]; 24 h, vs sham and IRI mice): induced
EP4 receptor mRNA levels ([4]; 24 h post-IRI): significantly increased
levels of EP2 receptors ([4]; 24 h post-IRI): no effect
levels of EP3 receptors ([4]; 24 h post-IRI): no effect
EP4 receptor protein ([4]; 24 h post-IRI, vs vehicle-treated mice): more than twice as high
pre-IRI levels of A2A receptors [4, 9]: increased
pre-IRI levels of EP4 receptors [4, 9]: increased
SMILES: CCCC[S+]([O-])c1sc2nc(-c3cccs3)cc(-c3ccccc3)c2c1N (centres unmarked) [SW033291]
AMP in renal tissue [1]: 15.60 ± 1.26 ng/mL
adenosine in renal tissue [1]: 2.65 ± 0.15 ng/mL
average renal arteriole area in the outer medulla [2]: 1132.97±159.86 μm^2
vascular congestion in the outer medullary region (gross findings) [3]: less-congested
proportion of TUNEL-positive cells ([3]; CM + drug): 24.01±2.90%
microscopic renal injury score ([3]; CM + drug, score 0-4): 0.53±0.16
RDF-inferred RBF ([5]; 24 h following IRI): completely preserved
renal arteriolar area in the outer medulla ([5]; 24 h post-IRI, vs post-IRI vehicle and sham mice): significantly increased
protection from reduction of RDF-inferred RBF ([5]; single dose 1 h before IRI (Pre) vs Pre+Post): somewhat less protection
RDF-inferred RBF ([5]; within 1 h after the first injection, just before AKI): increased inferred RBF above baseline
EP3 expression [6]: 1.00±0.02 fold
EP4 expression level [6]: 1.25±0.02 fold
HMGB1 levels in kidney tissue [7]: reduced
induction of IL-10 (protein only) [7]: blocked induction
induction of IL-17 [7]: blocked induction
induction of TNF-α [7]: blocked induction
count of TUNEL-positive apoptotic cells [8]: reducing
histological renal injury score [8]: reducing
tissue congestion in the outer medulla (gross pathology) [8]: ameliorated
